In paper PMC10287695, “Non-covalent inhibitors of thioredoxin glutathione reductase with schistosomicidal activity in vivo” (Nature Communications, 2023):
Values joined by “and” are separate entries in the source; they are usually repeats but may differ in a detail not shown here. Equal entries are not always repeated. Marks after values point to notes of the source that are not given here.

How the values were obtained:
TGR = biological target: T1, TGR (Schistosoma mansoni, UniProt Q962Y6); assay: Thermal shift assay (TSA); type: binding; parameters: key to Avg. Tm / Tm, replicate 1-3: Tm in °C, from a 25–95 °C melt curve; details: for increase in the Tm of TGR in the presence of NADPH: 500 µM NADPH; for Avg. Tm / Tm, replicate 1-3: TGR + 100 µM compound; for Avg. Tm, + 500 µM NADPH / Tm, replicate 1-3, + 500 µM NADPH: TGR + 100 µM compound + 500 µM NADPH; for Tm, replicate 1-3, + 500 µM NADPH / Tm, replicate 1-3: single replicates; for effect on Tm of oxidized TGR: without NADPH
T1 construct: made in house
T1 sequence (Q962Y6 1-598): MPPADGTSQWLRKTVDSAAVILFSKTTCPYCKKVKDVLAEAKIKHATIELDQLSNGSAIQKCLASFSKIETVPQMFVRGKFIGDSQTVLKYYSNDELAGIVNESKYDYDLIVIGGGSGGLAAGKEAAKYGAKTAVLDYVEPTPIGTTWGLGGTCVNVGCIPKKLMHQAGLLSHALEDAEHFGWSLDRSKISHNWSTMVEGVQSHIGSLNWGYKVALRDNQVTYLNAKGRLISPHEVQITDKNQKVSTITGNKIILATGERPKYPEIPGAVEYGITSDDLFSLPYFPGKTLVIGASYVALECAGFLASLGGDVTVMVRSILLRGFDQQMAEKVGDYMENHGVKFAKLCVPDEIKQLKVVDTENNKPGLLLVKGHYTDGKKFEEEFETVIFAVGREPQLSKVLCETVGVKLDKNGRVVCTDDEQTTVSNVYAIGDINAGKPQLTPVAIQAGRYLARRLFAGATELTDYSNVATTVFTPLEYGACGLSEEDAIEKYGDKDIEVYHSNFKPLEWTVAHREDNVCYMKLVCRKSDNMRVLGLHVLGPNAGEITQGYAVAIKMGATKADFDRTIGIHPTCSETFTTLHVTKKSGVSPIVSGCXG
Procedure: Samples were prepared by using a final concentration of 0.25 mg/ml TGR diluted in TGR reaction buffer to the desired volume. To evaluate reduced TGR, 500 µM NADPH was added. […] After the preincubation period, 20 µL samples were pipetted into a BioRad un-skirted PCR 96 well plate and sealed with MicroAmp^TM Optical Adhesive film. The plate was then centrifuged for 5 min at 1000 × g. TSA was carried out using a BioRad CFX Connect qPCR instrument with a melt curve setting of 25 − 95 °C, in increments of 0.5 °C/10 seconds. The SYBR green channel was used to detect fluorescence as the wavelength of flavin fluorescence overlaps with that of SYBR green. BioRad CFX Maestro 5.2 was used to analyze TSA data.

[1] = system: TGR in newly transformed schistosomula (NTS); assay: TGR inhibition in NTS with TRFS-Green fluorescent probe; type: cell-based, S. mansoni; details: 2 h with inhibitor (30 µM; AF 3 µM) then TRFS-Green 10 µM
Procedure: TGR inhibition in NTS was assessed using a fluorescent probe TRFS-Green (Medchemexpress)[43]. NTS prepared as previously described and cultured in M199 supplemented with 5.5 mM D-glucose, penicillin-streptomycin and 5% heat inactivated fetal bovine serum were incubated at 37 °C in a clear bottom flat well plate in a 5% CO2 incubator overnight. […] NTS were further treated with TRFS-Green (10 µM) for additional 4 h and rinsed with M199 medium to remove residual TRFS-Green. Fluorescence images were obtained using Keyence BZ-X800. The quantification of fluorescence intensity upon the uptake of TRFS-Green by NTS was performed by a fluorescent microplate imager (BioTek Cytation3) (excitation, 438 nm; emission, 538 nm) hourly for 5 h and after 24 h.

[2] = system: S. mansoni juvenile worms (21 days); assay: Schistosomicidal activity ex vivo, juvenile worms (21 days); type: cell-based; details: juvenile worms, 48 h exposure
Procedure: Three-week old, female Swiss-Webster mice obtained from the Charles River were housed in the Comparative Research Center of Rush University Medical Center. Mice were infected by percutaneous tail exposure to about 200 S. mansoni or 50 S. japonicum cercaria for adult worms and about 1000 cercaria for juvenile S. mansoni worms through natural transdermal penetration of the cercariae for 1 h[81].
DMSO formulated compounds were diluted with phenol red free M199 medium or RPMI medium for NTS or juvenile and adult worms, respectively, at <1% DMSO final concentrations. NTS, juvenile and adult worms from overnight cultures were tested against compounds in triplicate. Controls were treated with DMSO alone or 5 µM AF as a positive control in appropriate medium. […] Schistosome viabilities in the presence of the compounds were assessed using this formula: % Viability = Averages of Test / Averages of DMSO Control x 100.

[3] = Cytotoxicity in mammalian cells (Cell Titer Glo); type: cell-based; details: African green monkey, Vero cells, relative to untreated control
Procedure: Following overnight incubation, formulated DMSO-compound stock solutions were diluted with DMEM at <1% DMSO final concentrations. […] Vero cells treated similarly with different concentrations of PZQ, MZM and AF (Cayman Chemicals) were used as positive controls.

Row | Structure (SMILES) | increase in the Tm of TGR in the presence of NADPH (TGR) | Avg. Tm (TGR) | Avg. Tm, + 500 µM NADPH (TGR) | Tm, replicate 1-3, + 500 µM NADPH (TGR) | Tm, replicate 1-3 (TGR; in °C (unit assumed)) | effect on Tm of oxidized TGR (TGR) | Tm, replicate 1-3, + 500 µM NADPH (TGR; in °C (unit assumed)) | TRFS-Green fluorescence in NTS [1] | LD50 ex vivo S. mansoni 21 days [2] | viability at 24 h, 5 µM ([3]; 5 µM) [%] | viability at 24 h, 10 µM ([3]; 10 µM) [%] | viability at 24 h, 25 µM ([3]; 25 µM) [%] | viability at 24 h, 35 µM ([3]; 35 µM) [%] | viability at 24 h, 50 µM ([3]; 50 µM) [%]
1 | C[C@@H]1[C@H]2C[C@@H](C[C@H]1NCc1cc(-c3ccccc3)[nH]n1)C2(C)C [Compound 11] | no effect | 73.5 | 63.67 | 63.5 (2×) and 64 | 73.5 | no effect | – | – | – | – | – | – | – | –
2 | C[C@@H]1[C@H]2C[C@@H](C[C@H]1NCc1nc3ccccc3n1C)C2(C)C [Compound 12] | no effect | 73.5 | 64 | – | 73.5 | no effect | 64 | negligible effects | – | – | – | – | – | –
3 | C[C@@H]1N=C(c2ccccc2Cl)c2cc([N+](=O)[O-])ccc2NC1=O [MZM, meclonazepam, reference compound] | – | – | – | – | – | – | – | – | >50^a µM | 99.8 | 98.1 | 92.9 | 90.8 | 87
